This assay concerns BDF1 mice, B16 melanoma ip, median survival T/C. The assay is described as follows: NCI In Vivo Anticancer Drug Screen. Data for tumor model B16 Melanoma (intraperitoneal) in B6D2F1 (BDF1) mice. Particulars: endpoint: median survival time, higher = longer survival. The essentials:
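Read-out: survival or tumor size, given as treated/control ratio. Controls received vehicle only; animals bore transplantable tumors.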

Setting [1] is: dose: 6.25 mg/kg/injection, schedule: Q01DX009 (ip), vehicle: Klucel (hydroxypropylcellulose) (HPC).
Where [2] appears, read: dose: 12.5 mg/kg/injection, schedule: Q01DX009 (ip), vehicle: Klucel (hydroxypropylcellulose) (HPC).
Where [3] appears, read: dose: 50.0 mg/kg/injection, schedule: Q01DX009 (ip), vehicle: saline with Tween-80.
[4] abbreviates: dose: 100.0 mg/kg/injection, schedule: Q01DX009 (ip), vehicle: saline with Tween-80.
The mark [5] stands for this setting: dose: 200.0 mg/kg/injection, schedule: Q01DX009 (ip), vehicle: saline with Tween-80.
The mark [6] stands for this setting: dose: 25.0 mg/kg/injection, schedule: Q01DX009 (ip), vehicle: Klucel (hydroxypropylcellulose) (HPC).
[7] abbreviates: dose: 50.0 mg/kg/injection, schedule: Q01DX009 (ip), vehicle: Klucel (hydroxypropylcellulose) (HPC).
The mark [8] stands for this setting: dose: 100.0 mg/kg/injection, schedule: Q01DX009 (ip), vehicle: Klucel (hydroxypropylcellulose) (HPC).
Setting [9] is: dose: 200.0 mg/kg/injection, schedule: Q01DX009 (ip), vehicle: Klucel (hydroxypropylcellulose) (HPC).
The mark [10] stands for this setting: dose: 400.0 mg/kg/injection, schedule: Q01DX009 (ip), vehicle: Klucel (hydroxypropylcellulose) (HPC).

“And” between values parts separate entries of the source, which are not always exact repeats. Equal entries are not always repeated. Inconclusive results and toxic doses are left out.

Consider `O=Nc1ccc2cc(O)ccc2c1O`, for which the T/C (dose: 3.12 mg/kg/injection, schedule: Q04DX003 (ip), vehicle: Klucel (hydroxypropylcellulose) (HPC)) was 97 % of control; the T/C under setting [1] is 95 % of control; the T/C (dose: 6.25 mg/kg/injection, schedule: Q04DX003 (ip), vehicle: Klucel (hydroxypropylcellulose) (HPC)) was 102 % of control; the T/C under setting [2] was 109 % of control; the T/C (dose: 12.5 mg/kg/injection, schedule: Q04DX003 (ip), vehicle: Klucel (hydroxypropylcellulose) (HPC)) was 100 % of control.

With `CC(C)c1ccc(C2CCCCC2O)cc1` (configuration not stated), the T/C under setting [3] was 94 % of control and the T/C under setting [4] is 88 % of control.

Take `Cc1c(N)nc(C(CC(N)=O)NCC(N)C(N)=O)nc1C(=O)NC(C(=O)NC(C)C(O)CC(=O)NC(C(=O)NC(OC1OC(C)C(N)C(O)C1O)C(O)c1nc(-c2nc(C(=O)NCCCC(N)CC(=O)NCCCNCCCCN)cs2)cs1)C(C)O)C(OC1OC(CO)C(O)C(O)C1OC1OC(CO)C(O)C(OC(N)=O)C1O)c1cnc[nH]1` (configuration not stated): the T/C is, setting by setting: (dose: 0.2 mg/kg/injection, schedule: Q01DX009 (ip), vehicle: saline) 113 % of control; (dose: 0.8 mg/kg/injection, schedule: Q01DX009 (ip), vehicle: saline) 90 % of control; (dose: 1.6 mg/kg/injection, schedule: Q01DX009 (ip), vehicle: saline) 101 % of control.

Turning to `CCCCCCCCCCCC(=O)[O][Sn]([CH2]c1ccccc1)([CH2]c1ccccc1)[CH2]c1ccccc1`, the T/C reads like this: (dose: 1.25 mg/kg/injection, schedule: Q04DX003 (ip), vehicle: other) 107 % of control; (dose: 2.5 mg/kg/injection, schedule: Q04DX003 (ip), vehicle: other) 105 % of control; (dose: 5.0 mg/kg/injection, schedule: Q04DX003 (ip), vehicle: other) 95 % of control.

As to `CC(=O)Nc1ccc(N=Nc2c(O)c(S(=O)(=O)O)cc3cc(S(=O)(=O)O)ccc23)cc1`, under setting [5], the T/C was 100 % of control.

As for `OCC1OC(n2nnc3cc[nH]c(=S)c32)C(O)C1O` (configuration not stated), the T/C (dose: 3.13 mg/kg/injection, schedule: Q01DX009 (ip), vehicle: water) is 97 % of control; the T/C (dose: 6.25 mg/kg/injection, schedule: Q01DX009 (ip), vehicle: water) is 113 % of control; the T/C (dose: 12.5 mg/kg/injection, schedule: Q01DX009 (ip), vehicle: water) was 101 % of control; the T/C (dose: 25.0 mg/kg/injection, schedule: Q01DX009 (ip), vehicle: water) is 101 % of control.

For the compound `CCCCNC(C)(C)C(S)c1ccc(Cl)cc1` (configuration not stated), the T/C is 102 % of control under setting [1], 97 % of control under setting [2] and 89 % of control under setting [6].

In the case of `C=CC(C(=O)OCC)C(O)CCC` (configuration not stated), the T/C under setting [7] was 121 % of control, the T/C under setting [8] is 100 % of control and the T/C under setting [9] was 101 % of control.

For `O=[N+]([O-])c1cc([N+](=O)[O-])c(/C=C/c2ccccc2)c([N+](=O)[O-])c1/C=C/c1ccccc1`, the T/C runs as follows: under setting [8], 105 % of control; (dose: 100.0 mg/kg/injection, schedule: Q04DX003 (ip), vehicle: Klucel (hydroxypropylcellulose) (HPC)) 102 % of control; under setting [9], 107 % of control; (dose: 200.0 mg/kg/injection, schedule: Q04DX003 (ip), vehicle: Klucel (hydroxypropylcellulose) (HPC)) 94 % of control; under setting [10], 94 % of control; (dose: 400.0 mg/kg/injection, schedule: Q04DX003 (ip), vehicle: Klucel (hydroxypropylcellulose) (HPC)) 89 % of control.

`N=C(N)c1ccc(OCCCOc2ccc(C(=N)N)cc2Br)c(Br)c1`: the T/C by setting is: (dose: 6.25 mg/kg/injection, schedule: Q01DX009 (ip), vehicle: saline) 97 % of control and 114 % of control; (dose: 12.5 mg/kg/injection, schedule: Q01DX009 (ip), vehicle: saline) 97 % of control and 111 % of control; (dose: 25.0 mg/kg/injection, schedule: Q01DX009 (ip), vehicle: saline) 97 % of control and 111 % of control.

For the compound `COc1cccc2c1C(=O)c1c(O)c3c(c(O)c1C2=O)C[C@@](O)(C(=O)CO)C[C@@H]3OC1CC(NCc2ccccc2)C(O)C(C)O1` (some centres not stated), the T/C by setting is: (dose: 15.0 mg/kg/injection, schedule: Q01DX001 (ip), vehicle: water) 156 % of control and 171 % of control; (dose: 30.0 mg/kg/injection, schedule: Q01DX001 (ip), vehicle: water) 171 % of control and 175 % of control.

Regarding `O=C(CCl)N1CCC2(CC1)SSC1(CCN(C(=O)CCl)CC1)S2`, the T/C runs as follows: (dose: 12.5 mg/kg/injection, schedule: Q01DX009 (ip), vehicle: saline with Tween-80) 100 % of control; (dose: 25.0 mg/kg/injection, schedule: Q01DX009 (ip), vehicle: saline with Tween-80) 90 % of control.

`Cc1cc(Cl)ccc1NC(=O)c1ccc([N+](=O)[O-])cc1`: the T/C is, setting by setting: under setting [3], 104 % of control; under setting [4], 100 % of control; under setting [5], 103 % of control.

Consider `COc1c(Br)c2c(c(OC)c1OC)-c1ccc(OC)c(=O)cc1C(NC(C)=O)CC2` (configuration not stated), for which the T/C reads like this: (dose: 0.38 mg/kg/injection, schedule: Q01DX009 (ip), vehicle: Klucel (hydroxypropylcellulose) (HPC)) 113 % of control; (dose: 0.75 mg/kg/injection, schedule: Q01DX009 (ip), vehicle: Klucel (hydroxypropylcellulose) (HPC)) 115 % of control; (dose: 1.5 mg/kg/injection, schedule: Q01DX009 (ip), vehicle: Klucel (hydroxypropylcellulose) (HPC)) 112 % of control; (dose: 3.0 mg/kg/injection, schedule: Q01DX009 (ip), vehicle: Klucel (hydroxypropylcellulose) (HPC)) 118 % of control.

`CC(O)CNCCNc1ccc(NCCNCC(C)O)c2c1C(=O)c1c(O)ccc(O)c1C2=O` (configuration not stated): the T/C by setting is: (dose: 0.5 mg/kg/injection, schedule: Q01DX009 (ip), vehicle: distilled water + Tween-80) 150 % of control; (dose: 1.0 mg/kg/injection, schedule: Q01DX009 (ip), vehicle: distilled water + Tween-80) 163 % of control; (dose: 2.0 mg/kg/injection, schedule: Q01DX009 (ip), vehicle: distilled water + Tween-80) 178 % of control; (dose: 4.0 mg/kg/injection, schedule: Q01DX009 (ip), vehicle: distilled water + Tween-80) 222 % of control; (dose: 8.0 mg/kg/injection, schedule: Q01DX009 (ip), vehicle: distilled water + Tween-80) 222 % of control; (dose: 16.0 mg/kg/injection, schedule: Q01DX009 (ip), vehicle: distilled water + Tween-80) 222 % of control.

For the compound `C=CCC(C(C)=O)C(=O)OCC` (configuration not stated), the T/C under setting [8] is 106 % of control, the T/C under setting [9] is 110 % of control and the T/C under setting [10] is 110 % of control.

As for `COC1=C(OC)C(=O)C(C/C=C(\C)CC/C=C(\C)CC/C=C(\C)CC/C=C(\C)CC/C=C(\C)CC/C=C(\C)CC/C=C(\C)CC/C=C(\C)CCC=C(C)C)=C(C)C1=O`, the T/C is 81 % of control (dose: 10.0 mg/kg/injection, schedule: Q01DX025 (ip), vehicle: saline with Tween-80); 102 % of control (dose: 20.0 mg/kg/injection, schedule: Q01DX025 (ip), vehicle: saline with Tween-80); 100 % of control (dose: 40.0 mg/kg/injection, schedule: Q01DX025 (ip), vehicle: saline with Tween-80).

As for `Cn1c(O)c(C=N)c(=O)n(C)c1=O`, the T/C is 111 % of control (dose: 25.0 mg/kg/injection, schedule: Q01DX009 (ip), vehicle: other) and 102 % of control (dose: 50.0 mg/kg/injection, schedule: Q01DX009 (ip), vehicle: other).

Regarding `Cc1nonc1-c1ccc2c(c1)OCO2`, the T/C is, setting by setting: under setting [6], 98 % of control; under setting [7], 93 % of control; under setting [8], 91 % of control; under setting [9], 99 % of control.

The record behind these values is PubChem BioAssay AID192 (DTP/NCI, 2004).
